# Source: patent US20040234476A1, “Cosmetic preparation with anti-wrinkle action” (priority 2001, published 2004)
# Where no end group is shown, it is not given here. The star is where a group is joined. Palmitoyl = CCCCCCCCCCCCCCCC(=O)*
# Tested on: cells
# Assay: in vitro studies of collagen and glycosaminoglycan synthesis by cells
# Type: cell-based
substance,measurement,value
palmitoyl-Lys-Thr-Thr-Lys-Ser (Palmitoyl-KTTKS) [lipopeptide],synthesis of collagen and glycosaminoglycans by cells,induces cells to synthesize collagen and glycosaminoglycans
